Data from patent publication US20220054510A1, “USE OF 1-ALPHA-HYDROXYVITAMIN D5 AND RELATED COMPOUNDS AS PROPHYLACTIC OR THERAPEUTIC AGENTS FOR SARS-COV-2 (COVID-19 VIRUS) AND RELATED INFECTIONS” (priority 2020, published 2022).

Experiments:
SARS-CoV-2 [1] = format: cell-based; settings: Ace2-A549 cells, concentration of 10 micromolar, FIG. 2
[2] = system: Ace2-A549 cells (human lung epithelial cells); assay: host cell survival in SARS-CoV-2 infected Ace2-A549 cells; settings: concentration of 10 micromolar
SARS-CoV-2 [3] = settings: biorxiv.org/content/10.1101/2020.06.21.162396v1; cited from earlier work

| SMILES | elimination of SARS-CoV-2 virus infection (SARS-CoV-2 [1]) | killing of host cells [2] | in vitro activity against this virus (SARS-CoV-2 [3]) |
| --- | --- | --- | --- |
| C=C1/C(=C\C=C2/CCC[C@]3(C)[C@@H]([C@H](C)CC[C@@H](CC)C(C)C)CC[C@@H]23)C[C@@H](O)C[C@@H]1O [1-alphahydroxyvitamin D5, 1-alpha-hydroxyvitamin D5] | greater than 99% | without killing the host cells |  |
| C=C1/C(=C\C=C2/CCC[C@]3(C)[C@@H]([C@H](C)CCCC(C)(C)O)CC[C@@H]23)C[C@@H](O)C[C@@H]1O [Calcitriol] |  |  | in vitro activity against this virus |
